In ChEMBL document CHEMBL4725253, “Discovery of quinoline-based irreversible BTK inhibitors” (Bioorg Med Chem Lett, 2020):

Key:
Blood [1] = assay: Inhibition of mouse anti-human anti-IgD-stimulated CD69 cell surface expression in human whole blood preincubated for 2 hrs followed by anti-human anti-IgD stimulation for 18 hrs by flow cytometric analysis; format: functional, tissue-based
Blood [2] = assay: Inhibition of mouse anti-human anti-IgD-stimulated CD86 cell surface expression in human whole blood preincubated for 2 hrs followed by anti-human anti-IgD stimulation for 18 hrs by flow cytometric analysis; format: functional, tissue-based
[3] = molecular target: T1, Tyrosine-protein kinase Tec (Homo sapiens, UniProt P42680); assay: Inhibition of His-tagged recombinant human TEC expressed in baculovirus expression system preincubated for 1 hr by Z'lyte assay
T1 sequence (P42680 whole entry): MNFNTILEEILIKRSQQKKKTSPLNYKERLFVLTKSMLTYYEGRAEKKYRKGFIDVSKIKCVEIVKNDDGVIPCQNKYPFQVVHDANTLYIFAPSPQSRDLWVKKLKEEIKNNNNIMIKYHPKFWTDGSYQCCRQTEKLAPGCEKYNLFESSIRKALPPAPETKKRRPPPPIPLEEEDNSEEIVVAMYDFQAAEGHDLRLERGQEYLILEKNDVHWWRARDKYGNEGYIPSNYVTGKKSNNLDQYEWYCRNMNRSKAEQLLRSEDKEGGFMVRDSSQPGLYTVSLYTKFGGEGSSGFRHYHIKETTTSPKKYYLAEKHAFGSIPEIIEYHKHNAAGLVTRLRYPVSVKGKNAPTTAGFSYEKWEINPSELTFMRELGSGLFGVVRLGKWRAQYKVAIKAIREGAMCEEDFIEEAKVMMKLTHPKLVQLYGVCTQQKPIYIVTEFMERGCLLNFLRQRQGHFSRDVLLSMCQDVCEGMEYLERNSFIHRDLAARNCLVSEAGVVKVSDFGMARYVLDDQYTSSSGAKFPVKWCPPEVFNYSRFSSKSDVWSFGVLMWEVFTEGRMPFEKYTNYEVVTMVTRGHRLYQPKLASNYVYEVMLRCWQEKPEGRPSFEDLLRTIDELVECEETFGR

[4] = Inhibition of anti-human alphaIgM-stimulated MIP1beta production in human Ramos B cells preincubated for 1 hr followed by anti-human IgM stimulation for 6 hrs by ELISA; format: functional, cell-based
[5] = molecular target: T2, Tyrosine-protein kinase ITK/TSK (Homo sapiens, UniProt Q08881); assay: Inhibition of recombinant full length human GST-tagged ITK expressed in baculovirus expression system using tyrosine-1 peptide as substrate preincubated for 1 hr in presence of ATP by Z'-LYTE assay
T2 sequence (Q08881 whole entry): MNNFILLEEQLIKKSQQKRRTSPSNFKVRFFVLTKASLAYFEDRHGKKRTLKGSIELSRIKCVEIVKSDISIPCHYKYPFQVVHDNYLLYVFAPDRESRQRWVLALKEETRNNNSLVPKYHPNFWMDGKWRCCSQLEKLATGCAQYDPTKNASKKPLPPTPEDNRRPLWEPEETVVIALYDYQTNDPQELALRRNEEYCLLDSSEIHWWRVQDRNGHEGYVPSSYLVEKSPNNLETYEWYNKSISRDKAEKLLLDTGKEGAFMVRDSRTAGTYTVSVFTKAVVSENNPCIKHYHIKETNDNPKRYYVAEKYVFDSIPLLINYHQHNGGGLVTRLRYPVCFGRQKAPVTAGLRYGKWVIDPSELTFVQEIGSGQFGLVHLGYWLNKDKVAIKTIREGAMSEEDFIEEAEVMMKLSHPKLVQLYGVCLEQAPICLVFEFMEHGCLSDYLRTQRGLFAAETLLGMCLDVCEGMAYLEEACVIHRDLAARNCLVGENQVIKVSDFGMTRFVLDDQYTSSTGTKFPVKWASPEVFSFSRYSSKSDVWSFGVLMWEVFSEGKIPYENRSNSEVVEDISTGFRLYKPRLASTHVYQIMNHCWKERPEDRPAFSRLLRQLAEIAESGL

[6] = molecular target: T3, Epidermal growth factor receptor (Homo sapiens, UniProt P00533); assay: Inhibition of recombinant human GST-tagged EGFR (668 to 1210 residues) expressed in baculovirus expression system using Tyr 04 peptide as substrate preincubated for 1 hr by Z'-LYTE assay
T3 sequence (P00533 whole entry, the tested form may be a part): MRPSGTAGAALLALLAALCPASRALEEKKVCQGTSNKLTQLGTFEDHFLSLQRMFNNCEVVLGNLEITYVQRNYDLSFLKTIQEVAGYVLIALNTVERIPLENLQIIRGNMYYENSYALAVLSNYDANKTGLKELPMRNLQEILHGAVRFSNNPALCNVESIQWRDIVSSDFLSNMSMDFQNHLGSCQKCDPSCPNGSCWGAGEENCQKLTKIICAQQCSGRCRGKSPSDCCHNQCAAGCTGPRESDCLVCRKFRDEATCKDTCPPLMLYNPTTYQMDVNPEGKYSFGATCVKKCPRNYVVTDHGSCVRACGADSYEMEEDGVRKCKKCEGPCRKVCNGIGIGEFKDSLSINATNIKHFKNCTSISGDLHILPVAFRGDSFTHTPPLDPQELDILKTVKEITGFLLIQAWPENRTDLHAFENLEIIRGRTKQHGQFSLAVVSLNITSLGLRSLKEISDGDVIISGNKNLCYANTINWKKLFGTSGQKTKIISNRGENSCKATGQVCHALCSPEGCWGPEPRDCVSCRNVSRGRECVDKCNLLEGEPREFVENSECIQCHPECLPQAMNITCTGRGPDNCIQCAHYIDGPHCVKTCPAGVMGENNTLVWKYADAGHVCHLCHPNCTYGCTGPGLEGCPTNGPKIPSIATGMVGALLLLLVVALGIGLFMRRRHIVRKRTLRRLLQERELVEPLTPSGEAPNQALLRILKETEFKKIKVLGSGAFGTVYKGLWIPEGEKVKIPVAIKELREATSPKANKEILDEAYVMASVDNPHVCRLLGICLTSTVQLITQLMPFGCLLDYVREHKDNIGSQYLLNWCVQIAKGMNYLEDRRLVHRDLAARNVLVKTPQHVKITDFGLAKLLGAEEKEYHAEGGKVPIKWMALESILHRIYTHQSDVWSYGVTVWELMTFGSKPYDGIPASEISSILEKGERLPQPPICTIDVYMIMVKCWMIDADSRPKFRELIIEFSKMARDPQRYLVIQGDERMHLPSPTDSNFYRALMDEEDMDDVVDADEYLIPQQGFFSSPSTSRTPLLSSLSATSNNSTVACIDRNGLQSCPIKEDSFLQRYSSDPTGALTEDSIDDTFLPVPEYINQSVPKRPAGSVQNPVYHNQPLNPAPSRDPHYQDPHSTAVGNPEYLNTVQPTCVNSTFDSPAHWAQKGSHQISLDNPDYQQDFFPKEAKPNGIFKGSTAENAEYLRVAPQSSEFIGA

EGFR (phosphorylation) = EGFR (phosphorylation) (Homo sapiens, UniProt P00533); assay: Inhibition of EGFR phosphorylation in human A431 cells at 10000 nM relative to control; format: cell-based
Chain of EGFR (phosphorylation) (P00533 whole entry): as the sequence (P00533 whole entry, the tested form may be a part) above

[7] = Inhibition of goat anti-human IgM F(ab')-stimulated CD86 cell surface expression in human PBMC preincubated for 2 hrs followed by anti-human IgM stimulation for 18 hrs by flow cytometric analysis; format: functional, tissue-based
[8] = molecular target: T3, Epidermal growth factor receptor; assay: Inhibition of EGFR phosphorylation in human A431 cells; format: cell-based
[9] = In vivo inhibition of CD69 expression in po dosed mouse; format: functional

SMILES | EC50 (Blood [1]) [nM] | EC50 (Blood [2]) [nM] | IC50 [3] [nM] | EC50 [4] [nM] | IC50 [5] [nM] | IC50 [6] [nM] | inhibition at 10 µM (EGFR (phosphorylation)) [%] | EC50 [7] [nM] | EC50 [8] [nM] | ED50 [9] [mg/kg]
C=CC(=O)Nc1ccc2nccc(Oc3ccc(C(=O)Nc4cc(CC)ccn4)cc3)c2c1 | 167 | 267 | 38 | 22 | > 1000 | 958 | 36 | 21 |  | 
CC#CC(=O)Nc1cc2c(Oc3ccc(C(=O)Nc4ccccn4)cc3)ccnc2cc1OCCN1CCOCC1 | 74 |  | 219 | 15 | > 1000 | > 1000 |  |  | > 1000 | 
COc1cc2nccc(Oc3ccc(C(=O)Nc4ccccn4)cc3)c2cc1NC(=O)C#CCCN1CCOCC1 | 13 |  | 184 | 4.1 | 916 | 138 |  |  | > 1000 | 13
